Measurements reported in patent publication US20240025906A1 (NEURON23, INC., priority 2022, published 2024).
pIC50, pKd: −log10 of the molar value. Where a name gives a salt, the structure may show the parent alone. Read-outs that look alike come from different tables or passages of the source.

What was measured:
TYK2 JH2 = molecular target: T1, TYK2 JH2 (Homo sapiens, UniProt P29597); test: TYK2 JH2 binding assay (KINOMEscan KdELECT competitive binding); conditions: TYK2 JH2 domain, KINOMEscan KdELECT (Assay A)
T1 construct: purchased DiscoverX (KINOMEscan KdELECT service); host or cells: E. coli BL21-derived (T7 phage display) or HEK-293
Summary of the method: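 Kd values come from qPCR measurement of kinase retained on an immobilized-ligand resin after 1 h room-temperature competition with compound in an 11-point, 3-fold series.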

[1] = tested on: JAK1/TYK2 pSTAT5 (Tyr694/699) in THP-1 cell line; test: IFNa-stimulated JAK1/TYK2 pSTAT5 (Tyr694/699) inhibition cellular assay, AlphaLISA; type: cell-based; conditions: THP-1 cells, AlphaLISA (Assay B)
Summary of the method: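 Compound dilutions were dispensed first, and HBSS-suspended THP-1 cells were added on top (final top concentration 10000 nM, 6-fold series). After 1 h at 37 °C, IFNa (100 ng/mL as added) was applied for 30 min. Cells were then lysed and pSTAT5 was quantified by AlphaLISA.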

[2] = read-out: Biochemical TYK2_DiscoverX_JH2_BND_Kd
[3] = Homo sapiens, IFNa-stimulated, read-out: Cellular_THP1_IFNa-pSTATS_TYK2
[4] = Homo sapiens, IFNa-stimulated pSTAT5 (Tyr694/699), read-out: Cellular_THP1_IFNa-pSTATS_TYK2
[5] = IFNa-stimulated pSTAT5 (Tyr694/699), read-out: Cellular_THP1_IFNa-pSTATS_TYK2
[6] = read-out: Biochemical TYK2_JH2_Kd
[7] = Homo sapiens, IFNa-stimulated, read-out: Cellular THP1_IFNa-pSTATS_IC50

T1 sequence (P29597 589-875 limits assumed): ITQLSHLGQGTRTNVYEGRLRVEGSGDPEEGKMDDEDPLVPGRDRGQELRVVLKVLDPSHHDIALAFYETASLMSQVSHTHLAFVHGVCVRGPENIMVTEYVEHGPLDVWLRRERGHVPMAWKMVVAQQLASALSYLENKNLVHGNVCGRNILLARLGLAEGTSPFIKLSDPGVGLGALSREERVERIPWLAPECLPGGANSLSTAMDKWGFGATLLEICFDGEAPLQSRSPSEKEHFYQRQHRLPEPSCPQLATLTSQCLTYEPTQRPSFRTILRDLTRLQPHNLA

SMILES | pKd (TYK2 JH2; [2]) | pIC50 [1, 4] | pKd (TYK2 JH2; [6]) | pIC50 [1, 7] | also measured
CNc1ncc(C#Cc2ccc3c(c2)CC[C@@H](COC)O3)c2cc(NC(=O)C3CC3)ncc12 (single isomer, unassigned) [Example 989] | ≥ 7.00 |  |  |  | pIC50 [1, 3]: ≥ 6.30
CNc1ncc(-c2nc3ccc(N4CCOCC4)cn3n2)c2cc(NC(=O)[C@@H]3CC3(F)F)ncc12 (single isomer, unassigned) [Example 994] | ≥ 7.00 |  |  |  | pIC50 [1, 3]: ≥ 6.30
CNc1ncc(-c2nc3ccc(N4CCOC(COC)C4)cn3n2)c2cc(NC(=O)C3CC3)ncc12 (single isomer, unassigned) [Example 1023] | ≥ 7.00 | ≥ 6.30 |  |  | 
CNc1ncc(-c2nc3ccc(N4CCOC(COC)C4)cn3n2)c2cc(NC(=O)C3CC3)ncc12 (single isomer, unassigned) [Example 1024] | ≥ 7.00 |  |  |  | pIC50 [1, 5]: ≥ 6.30
CNc1ncc(-c2nc3ccc(N4CCO[C@@H]([C@H](C)O)C4)cn3n2)c2cc(NC(=O)C3CC3)ncc12 (single isomer, unassigned) [Example 1044] | ≥ 7.00 | ≥ 6.30 |  |  | 
CNc1ncc(-c2nc3ccc(N4CCO[C@H]([C@@H](C)O)C4)cn3n2)c2cc(NC(=O)C3CC3)ncc12 (single isomer, unassigned) [Example 1045] | ≥ 7.00 | ≥ 6.30 |  |  | 
CNc1ncc(-c2nc3ccc(N4CCO[C@@H]([C@@H](C)O)C4)cn3n2)c2cc(NC(=O)C3CC3)ncc12 (single isomer, unassigned) [Example 1046] | ≥ 7.00 | ≥ 6.30 |  |  | 
CNc1ncc(-c2nc3ccc(N4CCO[C@H]([C@H](C)O)C4)cn3n2)c2cc(NC(=O)C3CC3)ncc12 (single isomer, unassigned) [Example 1047] | ≥ 7.00 | ≥ 6.30 |  |  | 
CNc1ncc(-c2nc3ccc(N4CCOC(C(C)(C)F)C4)cn3n2)c2cc(NC(=O)C3CC3)ncc12 (single isomer, unassigned) [Example 1049] | ≥ 7.00 | ≥ 6.30 |  |  | 
CNc1ncc(-c2nc3ccc(N4CCOC(C(C)(C)F)C4)cn3n2)c2cc(NC(=O)C3CC3)ncc12 (single isomer, unassigned) [Example 1050] | ≥ 7.00 |  |  |  | pIC50 [1, 5]: ≥ 6.30
CNc1ncc(-c2nc3cc(N4CCOCC4)ccc3o2)c2cc(NC(=O)[C@H]3C[C@H]3C(F)F)ncc12 (single isomer, unassigned) [Example 1064] | ≥ 7.00 | ≥ 6.30 |  |  | 
CNc1ncc(-c2nc3cc(N4CCOCC4)ccc3o2)c2cc(NC(=O)[C@@H]3C[C@@H]3C(F)(F)F)ncc12 (single isomer, unassigned) [Example 1066] | ≥ 7.00 | ≥ 6.30 |  |  | 
CNc1ncc(-c2nc3cc(N4CCOCC4)ccc3o2)c2cc(NC(=O)[C@@H]3C[C@@H]3C(F)(F)F)ncc12 (single isomer, unassigned) [Example 1067] | ≥ 7.00 |  |  |  | pIC50 [1, 5]: ≥ 6.30
CNc1ncc(-c2nc3cc(N4CCOCC4)ccc3o2)c2cc(NC(=O)[C@@H]3C[C@@H]3C(F)F)ncc12 (single isomer, unassigned) [Example 1069] | ≥ 7.00 | ≥ 6.30 |  |  | 
CNc1ncc(C#Cc2ccc(N3CCOCC3)cc2)c2cc(NC(=O)[C@@H]3C[C@@H]3C(F)F)ncc12 (single isomer, unassigned) [Example 1074] | ≥ 7.00 | ≥ 6.30 |  |  | 
CNc1ncc(C#Cc2ccc(N3CCOCC3)cc2)c2cc(NC(=O)[C@H]3C[C@H]3C(F)F)ncc12 (single isomer, unassigned) [Example 1075] | ≥ 7.00 | ≥ 6.30 |  |  | 
CC[C@@H]1CN(c2ccc3nc(-c4cnc(NC)c5cnc(NC(=O)[C@H]6C[C@H]6C)cc45)nn3c2)CCO1 (single isomer, unassigned) [Example 1078] | ≥ 7.00 | ≥ 6.30 |  |  | 
CC[C@H]1CN(c2ccc3nc(-c4cnc(NC)c5cnc(NC(=O)[C@H]6C[C@H]6C)cc45)nn3c2)CCO1 (single isomer, unassigned) [Example 1079] | ≥ 7.00 | ≥ 6.30 |  |  | 
CNc1ncc(-c2nc3ccc(N4CCOCC4)cn3n2)c2cc(NC(=O)[C@H]3CC3(F)F)ncc12 (single isomer, unassigned) [Example 1141] | ≥ 7.00 | ≥ 6.30 |  |  | 

SMILES | pKd (TYK2 JH2; [2]) | pIC50 [1, 4] | pKd (TYK2 JH2; [6]) | pIC50 [1, 7] | also measured
CNc1ncc(-c2ccccc2)c2cc(NC(=O)C3CC3)ncc12 [Example 1, N-(8-(methylamino)-5-phenyl-2,7-naphthyridin-3-yl)cyclopropanecarboxamide] |  |  | ≥ 7.00 | < 6.30 | 
CNc1nccc2cc(NC(=O)C3CC3)ncc12 [Example 2, N-(8-(methylamino)-2,7-naphthyridin-3-yl)cyclopropanecarboxamide] |  |  | 6.00 to 7.00 | < 6.30 | 
CNc1ncc(Br)c2cc(NC(=O)C3CC3)ncc12 [Example 3, N-(5-bromo-8-(methylamino)-2,7-naphthyridin-3-yl)cyclopropanecarboxamide] |  |  | ≥ 7.00 | < 6.30 | 
CNc1ncc(-c2ccccn2)c2cc(NC(=O)C3CC3)ncc12 [Example 4, N-(8-(methylamino)-5-(pyridin-2-yl)-2,7-naphthyridin-3-yl)cyclopropanecarboxamide] |  |  | ≥ 7.00 | < 6.30 | 
CNc1ncc(-c2ncccc2OC)c2cc(NC(=O)C3CC3)ncc12 [Example 5, N-(5-(3-methoxypyridin-2-yl)-8-(methylamino)-2,7-naphthyridin-3-yl)cyclopropanecarboxamide] |  |  | 6.00 to 7.00 | < 6.30 | 
CNc1ncc(-c2ccnn2C)c2cc(NC(=O)C3CC3)ncc12 [Example 6, N-(5-(1-methyl-1H-pyrazol-5-yl)-8-(methylamino)-2,7-naphthyridin-3-yl)cyclopropanecarboxamide] |  |  | ≥ 7.00 | < 6.30 | 
CNc1ncc(-c2ccccc2OC)c2cc(NC(=O)C3CC3)ncc12 [Example 7, N-(5-(2-methoxyphenyl)-8-(methylamino)-2,7-naphthyridin-3-yl)cyclopropanecarboxamide] |  |  | 6.00 to 7.00 | < 6.30 | 
CNc1ncc(-c2ccncc2OC)c2cc(NC(=O)C3CC3)ncc12 [Example 8, N-(5-(3-methoxypyridin-4-yl)-8-(methylamino)-2,7-naphthyridin-3-yl)cyclopropanecarboxamide] |  |  | ≥ 7.00 | < 6.30 | 
CNc1ncc(-c2ccncc2)c2cc(NC(=O)C3CC3)ncc12 [Example 9] |  |  | ≥ 7.00 | < 6.30 | 
CNc1ncc(-c2cc(C)no2)c2cc(NC(=O)C3CC3)ncc12 [Example 10, N-(8-(methylamino)-5-(3-methylisoxazol-5-yl)-2,7-naphthyridin-3-yl)cyclopropanecarboxamide] |  |  | ≥ 7.00 | < 6.30 | 
CCc1ccccc1-c1cnc(NC)c2cnc(NC(=O)C3CC3)cc12 [Example 11, N-(5-(2-ethylphenyl)-8-(methylamino)-2,7-naphthyridin-3-yl)cyclopropanecarboxamide] |  |  | 6.00 to 7.00 | < 6.30 | 
CNc1ncc(-c2cccc(OC)c2)c2cc(NC(=O)C3CC3)ncc12 [Example 12, N-(5-(3-methoxyphenyl)-8-(methylamino)-2,7-naphthyridin-3-yl)cyclopropanecarboxamide] |  |  | ≥ 7.00 | < 6.30 | 
CNc1ncc(-c2ccc(OC)cc2)c2cc(NC(=O)C3CC3)ncc12 [Example 13, N-(5-(4-methoxyphenyl)-8-(methylamino)-2,7-naphthyridin-3-yl)cyclopropanecarboxamide formate] |  |  | ≥ 7.00 | < 6.30 | 
CNc1ncc(-c2cccnc2)c2cc(NC(=O)C3CC3)ncc12 [Example 14, N-(8-(methylamino)-5-(pyridin-3-yl)-2,7-naphthyridin-3-yl)cyclopropanecarboxamide] |  |  | ≥ 7.00 | < 6.30 | 
CNc1ncc(-c2ccccc2Cl)c2cc(NC(=O)C3CC3)ncc12 [Example 15, N-(5-(2-chlorophenyl)-8-(methylamino)-2,7-naphthyridin-3-yl)cyclopropanecarboxamide] |  |  | ≥ 7.00 | < 6.30 | 
CNc1ncc(-c2ccc(Cl)cc2)c2cc(NC(=O)C3CC3)ncc12 [Example 16, N-(5-(4-chlorophenyl)-8-(methylamino)-2,7-naphthyridin-3-yl)cyclopropanecarboxamide] |  |  | ≥ 7.00 | < 6.30 | 
CNc1ncc(-c2ccccc2F)c2cc(NC(=O)C3CC3)ncc12 [Example 17, N-(5-(2-fluorophenyl)-8-(methylamino)-2,7-naphthyridin-3-yl)cyclopropanecarboxamide] |  |  | ≥ 7.00 | < 6.30 | 
CNc1ncc(-c2ccc(F)cc2)c2cc(NC(=O)C3CC3)ncc12 [Example 18, N-(5-(4-fluorophenyl)-8-(methylamino)-2,7-naphthyridin-3-yl)cyclopropanecarboxamide] |  |  | ≥ 7.00 | < 6.30 | 
CCn1nccc1-c1cnc(NC)c2cnc(NC(=O)C3CC3)cc12 [Example 19, N-(5-(1-ethyl-1H-pyrazol-5-yl)-8-(methylamino)-2,7-naphthyridin-3-yl)cyclopropanecarboxamide] |  |  | ≥ 7.00 | < 6.30 | 
